Assay: Migration test (paper chromatography)
Format: physicochemical
Details: Wattmann 1-CHR paper, eluent cyclohexane/toluene 50 wt %/50 wt %, judged qualitatively (FIG. 5)
Procedure: A chromatography test is performed to provide an (comparative) indication of migration of a colorant on a print substrate. For this, solutions of the colorants to be tested, in dichloromethane are prepared. The prepared solutions contain substantially equal concentrations of colorant. For the purpose of the present invention, the eluent solution consists of a cyclohexane/toluene mixture (50 wt %/50 wt %). A sheet of Wattmann 1-CHR paper is used as a substrate. At about 1 cm from the bottom edge of the paper sheet dots of equal size of the colorant solutions are made (by using a pipette). Each dot is positioned at substantially the same distance from the bottom edge of the paper sheet. Then the sheet is left to dry. A beaker is filled with eluent solution such that the level of eluent solution is less than 1 cm. The dried test sample (paper sheet provided with colorant dots) is placed in the beaker such that the lower edge of the paper sheet touches the bottom of the beaker. Due to capillary flow the eluent solution will flow upward in the paper sheet. This set up is left to stand until the wetted height of paper sheet is at least 1.5 times the height to which the most soluble colorant rises. The results are judged qualitatively. If the colorant dot remains at the starting position, migration is not likely to occur. […]

migration of colorant on paper substrate: significant migration
Structure (SMILES): Cn1c(=O)cc2c3c(c(NC4CCCCC4)ccc31)C(=O)c1ccccc1-2 [SR149]

— patent publication US20180022922A1, “METHOD FOR PREPARING A COLORANT FOR USE IN A HOT MELT INK” (Océ Holding B.V., priority 2016, published 2018)
